Source: US12678440B2, “Compositions and methods for treating misfolded protein ocular disorders” (CASE WESTERN RESERVE UNIVERSITY, priority 2020, dated 2026)

Tests used:
P23H rhodopsin = assay: Image-based (high-content imaging) assay in NIH3T3 (RHO^P23H/GFP) cells; format: cell-based; conditions: for EC50 / Efficacy, Image-based assay NIH3T3 (RHO^P23H/GFP): 24 h; for EC50: 8-10 doses, rhodopsin immunostaining; for Efficacy, Image-based assay NIH3T3 (RHO^P23H/GFP): DMSO 0%, secondary antibody only −100%
Excerpt: Two NIH3T3 stable cell lines, NIH3T3 (RHO^WT/GFP) and NIH3T3 (RHO^P23H/GFP) were shared by Dr. Krzysztof Palczewski's lab who generated them by incorporating the […] DNA constructs to the NIH3T3 cells, respectively, via viral transduction (24, 33). GFP was co-expressed with rhodopsin for positive-clone selection. The expression of the WT and P23H rhodopsin protein was confirmed by immunoblots and immunostaining.
(§1) To assess the effect of active compounds on the clearance of P23H rhodopsin in mammalian cells, an image-based assay was performed using NIH3T3 (RHO^WT/GFP) and NIH3T3 (RHO^P23H/GFP) cells, as described previously. Briefly, cells were seeded at 5000 cells per well in 384-well plates and incubated at 37° C. in 5% CO2 for 4 hours until cells were attached to the bottom of the plate. Attached cells were treated with compounds for 24 hours. The assay medium was aspirated, and cells were fixed with 4% paraformaldehyde at 20 μL per well for 20 min at room temperature. Cell membranes were permeabilized with PBS containing 0.1% Triton X-100 (PBST) and then incubated with 50 µg/mL 1D4 anti-rhodopsin antibody at 15 μL/well for 1 hour at room temperature. After three washes with 50 μl/well of PBST, cells were incubated with 15 μL/well Cy3-conjugated goat anti-mouse IgG antibody for 1 hour at room temperature. After three washes with 50 μl/well of PBST, cells were incubated in 50 μl/well of PBS containing 2 μg/mL Hoechst 33342 to stain the nuclei. Finally, the immunostained cells were imaged by an ImageExpress High Content Imaging System (MolecularDevices). Immunofluorescence of rhodopsin was measured by MetaXpress software using the mean of total fluorescence of Cy3 channel per cell per well taken from five fields containing 600-1000 intact cells per well. After normalizing the fluorescence intensities of rhodopsin to the DMSO treated cells as 0% and cells immunostained with secondary antibody only as −100%, dose-response curves for each compound were plotted and fitted by a modified Hill function using the Origin software. The high-content imaging experiments for hit validation were performed at the CWRU drug discovery facility, and the high-content imaging analyses for the MTX co-treatment with BafA1 and MG-132 were undertaken at the University of Pittsburgh Drug Discovery Institute.

[1] = tested on: adRP-causing rhodopsin mutants (T4R, P23H, P53R, C110Y, D190N, P267L); assay: High-content imaging of rhodopsin mutants stably expressed in U2OS cells; format: cell-based, mouse; conditions: for immunofluorescence intensities of rhodopsin mutants: six adRP mutants
Method: Seven U2OS stable cell lines were generated which separately express the WT and six mutant mouse rhodopsin (T4R, P23H, P53R, C110Y, D190N, P267L) fused with Venus fluorescence protein. Briefly, the U2OS cells (ATCC, Manassas, VA, USA) were transfected with the pcDNA3.1 Zeo containing the cDNA of mouse WT or T4R, P23H, P53R, C110Y, D190N, P267L rhodopsin fused with Venus and transfected cells were incubated in DMEM with 10% FBS for 48 h before addition of 400 μg/mL of Zeocin for positive clone selection. Colonies of cells survived from 1 week of Zeocin selection were collected, and expression of WT and six mutant rhodopsins were confirmed by fluorescence of Venus and immunoblotting of rhodopsin.
as §1

Structure (SMILES) | EC50 (P23H rhodopsin) | Efficacy, Image-based assay NIH3T3 (RHO^P23H/GFP) (P23H rhodopsin) | immunofluorescence intensities of rhodopsin mutants [1] | EC50 (P23H rhodopsin; listed as MTX) | mean intensity of P23H rhodopsin immunostaining per cell (P23H rhodopsin; MTX alone, dose series) | MTX dose-dependent reduction of P23H rhodopsin immunostaining, co-treatment with BafA1 (P23H rhodopsin; co-treatment 100 nM BafA1) | MTX dose-dependent reduction of P23H rhodopsin immunostaining, addition of MG-132 (P23H rhodopsin; co-treatment 5 μM MG-132) | rhodopsin immunofluorescence in cells expressing the P23H, C110Y, D190N and P267L mutants ([1]; seven doses)
CC(=O)OC(CC(=O)[O-])C[N+](C)(C)C (stereo not drawn) [CL-001] | 2100 nM | −83.6% | reduced |  |  |  |  | 
CC(=O)OC(CC(=O)O)C[N+](C)(C)C (stereo not drawn) [CL-002] | 1600 nM | −61.0% | reduced |  |  |  |  | 
O=C(O)C1=CC=CC(O)C1O (stereo not drawn) [CL-003] | 600 nM | −46.1% |  |  |  |  |  | 
CC(O)CN (stereo not drawn) [CL-004] | 470 nM | −70.7% |  |  |  |  |  | 
NCC(=O)COP(=O)(O)O [CL-005] | 1300 nM | −72.7% | reduced |  |  |  |  | 
CN(Cc1cnc2nc(N)nc(N)c2n1)c1ccc(C(=O)N[C@@H](CCC(=O)O)C(=O)O)cc1 [CL-009, N-[4-[[(2,4-diamino-6-pteridinyl)methyl]methylamino]benzoyl]-L-glutamic acid] | 3300 nM | −36.0% |  | ~3300 nM | reduced in an MTX dose-dependent manner | entirely abolished | not affected | dose-dependent reductions

More lines, main results first:

EC50 (P23H rhodopsin) | Structure (SMILES) | Efficacy, Image-based assay NIH3T3 (RHO^P23H/GFP) (P23H rhodopsin) | immunofluorescence intensities of rhodopsin mutants [1] | EC50 (P23H rhodopsin; listed as MTX) | mean intensity of P23H rhodopsin immunostaining per cell (P23H rhodopsin; MTX alone, dose series) | MTX dose-dependent reduction of P23H rhodopsin immunostaining, co-treatment with BafA1 (P23H rhodopsin; co-treatment 100 nM BafA1) | MTX dose-dependent reduction of P23H rhodopsin immunostaining, addition of MG-132 (P23H rhodopsin; co-treatment 5 μM MG-132) | rhodopsin immunofluorescence in cells expressing the P23H, C110Y, D190N and P267L mutants ([1]; seven doses)
2200 nM | O=C(NC1CCNCC1)c1n[nH]cc1NC(=O)c1c(Cl)cccc1Cl [CL-006] | −76.4% |  |  |  |  |  | 
2900 nM | CCn1cnc2c(N)ncnc21 [CL-007] | −72.7% | reduced |  |  |  |  | 
1600 nM | CCC(C)(O)C(O)C(=O)O (stereo not drawn) [CL-008] | −70.1% |  |  |  |  |  | 
